Data published in PubChem BioAssay (NCI).
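The compound was tested at five concentrations on cells cultured in 96-well plates, with a 48-hour exposure period. TGI marks complete inhibition of growth.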 Where a SMILES comes first, the peptide text is derived from it. Bridges are numbered along the chain shown (N, C = ends). The star is where a group is joined. Cbz = O=C(OCc1ccccc1)*

Columns and labels:
Assay in all cases: inhibition of tumour cell growth, NCI panel, 48 h
SF-295 CNS = system: SF-295 CNS
DU-145 prostate = system: DU-145 prostate
SNB-75 CNS = system: SNB-75 CNS
SNB-19 CNS = system: SNB-19 CNS
T-47D breast = system: T-47D breast
SK-MEL-2 melanoma = system: SK-MEL-2 melanoma
SK-OV-3 ovarian = system: SK-OV-3 ovarian
HL-60(TB) leukemia = system: HL-60(TB) leukemia
EKVX NSCLC = system: EKVX NSCLC
IGROV1 ovarian = system: IGROV1 ovarian
MDA-MB-435 = system: MDA-MB-435
ACHN renal = system: ACHN renal
KM12 colon = system: KM12 colon
LOX IMVI melanoma = system: LOX IMVI melanoma
NCI-H23 lung = system: NCI-H23 lung
MALME-3M melanoma = system: MALME-3M melanoma
OVCAR-3 ovarian = system: OVCAR-3 ovarian
TK-10 renal = system: TK-10 renal
SR leukemia = system: SR leukemia

Compound | TGI (SF-295 CNS) [µM] | TGI (DU-145 prostate) [µM] | TGI (SNB-75 CNS) [µM] | TGI (SNB-19 CNS) [µM] | TGI (T-47D breast) [µM] | TGI (SK-MEL-2 melanoma) [µM] | TGI (SK-OV-3 ovarian) [µM] | TGI (HL-60(TB) leukemia) [µM] | TGI (EKVX NSCLC) [µM] | TGI (IGROV1 ovarian) [µM] | TGI (MDA-MB-435) [µM] | TGI (ACHN renal) [µM] | TGI (KM12 colon) [µM] | TGI (LOX IMVI melanoma) [µM] | TGI (NCI-H23 lung) [µM] | TGI (MALME-3M melanoma) [µM] | TGI (OVCAR-3 ovarian) [µM] | TGI (TK-10 renal) [µM] | TGI (SR leukemia) [µM]
COc1ccc(/C=C/C(=O)c2cc(OC)cc(OC)c2)cc1 | 7.23 | 10.8 | 8.19 | 7.3 | 11.9 | 42.3 | 27.5 | 9.73 | 20 | 25.7 | 3.45 | 17.7 | 2.23 | 15.4 | 8.53 | 27.8 | 15.1 | 23.9 | 
Clc1ccc(/C=C/c2nc(-c3ccccc3)cn3c2nc2ccccc23)cc1Cl |  | > 100 |  | > 100 | > 100 | > 100 | > 100 | 49.7 | > 100 | > 100 | > 100 | > 100 | > 100 | > 100 | > 100 |  | > 100 | > 100 | > 100
Cc1cn([C@@H]2O[C@H](CO[Si](C)(C)C(C)(C)C)[C@]3(O[C@H]3C(=O)NO)[C@H]2O[Si](C)(C)C(C)(C)C)c(=O)[nH]c1=O | 3.4 | 3.67 | 3.71 | 3.18 | 4.07 | 3.9 | 3.66 | 3.57 | 3.59 | 3.19 | 4.38 | 3.06 | 3.71 | 3.1 | 3.66 | 5.07 | 3.49 | 5.35 | 
COC(=NC(C)C)NC(C)C |  | > 100 | > 100 | > 100 | > 100 | > 100 | > 100 | > 100 | > 100 | > 100 | > 100 | > 100 |  | > 100 | > 100 |  |  | > 100 | > 100
CCOC(=O)c1nc2ccccc2nc1Oc1cc(OC)cc(OC)c1 | > 100 | > 100 |  | > 100 | > 100 | > 100 | > 100 |  | > 100 | > 100 | > 100 | > 100 | > 100 | > 100 |  | > 100 | > 100 | > 100 | > 100
CCCCCCCCCCCCCCCCOCC(COP(=O)(O)OCC1OC(n2cc(CC)c(=O)[nH]c2=O)CC1O)OC(=O)CCCCCCCCCCCCCCC (stereo not given) | > 100 | > 100 | > 100 | > 100 | > 100 | > 100 | > 100 | > 100 | > 100 | > 100 | > 100 | > 100 | > 100 | > 100 | > 100 |  | > 100 | > 100 | > 100
CN1CCN(Cn2nc(COc3ccccc3Cl)n(/N=C/c3ccc(-c4ccc(Cl)cc4Cl)o3)c2=S)CC1 | 87.3 | 38.3 |  |  | 55 | 45.4 | > 100 | 55.1 | > 100 | > 100 | 64.5 |  | 42.1 | > 100 | 44.8 |  | 47.5 | 62.4 | 51.8
Cc1nc2ccc(F)cc2c2c1CCS2 | > 100 | > 100 | > 100 | > 100 | > 100 |  |  | 47.6 | > 100 | > 100 | > 100 | > 100 | > 100 | > 100 | > 100 | > 100 | > 100 | > 100 | > 100
CN(Cc1cnc2nc(N)nc(N)c2n1)c1ccc(C(=O)NCCCS(=O)(=O)O)cc1 | > 100 | > 100 | > 100 | > 100 | > 100 | > 100 | > 100 |  | > 100 | > 100 | > 100 | > 100 | > 100 | > 100 | > 100 | > 100 | > 100 | > 100 | > 100
COc1cc2nc3n(c2cc1OC)C(O)c1c(Cl)nc(SC)nc1S3 (stereo not given) | > 94.5 | 24.1 | > 68 | > 37.7 | > 59 | > 27.2 | 30.8 |  | 40.6 | 13 | > 64.3 | 42.2 | > 100 | 5.07 | 18.3 | 8.8 | 13.3 | > 74 | > 100
C=CCN1C(=O)CC2[C@@H]3CCc4cc(O)ccc4C3CC[C@]2(C)C1=O (stereo not given in full) | > 10 | > 10 |  | > 10 | > 10 | > 10 | > 10 | > 10 | > 10 | > 10 | > 10 | > 10 | > 10 | > 10 | > 10 | > 10 | > 10 | > 10 | > 10
Cc1ccc(S(=O)(=O)n2cc(/C=C/C#N)c(-c3cn(S(=O)(=O)c4ccc(C)cc4)cc3-c3cn(S(=O)(=O)c4ccc(C)cc4)cc3/C=C/C#N)c2)cc1 | > 100 | > 100 | > 100 | > 100 | > 100 | > 100 | > 100 |  | > 100 | > 100 | > 100 | > 100 | > 100 | > 100 | > 100 | > 100 | > 100 | > 100 | > 100
C=C1CC[C@](C)(O)[C@@]2(C)CC[C@H]3C(=C(C)C)C(=O)C[C@]3(C)C[C@H]12 | > 50 | > 50 | > 50 | > 50 | > 50 | > 50 | > 50 | 18.9 | > 50 | > 50 | > 50 | > 50 | > 50 | 28.4 | > 50 |  | > 50 | > 50 | 41.1
CC(C)[Si](OC12CCC(CC1O)CC2CO)(C(C)C)C(C)C (stereo not given) | 24.6 | 35.5 | 26.8 | 28.6 | 25.7 | 29.3 | 27.5 | 6.73 |  |  | 31.7 | 27.2 | 25.3 |  | 25.4 |  | 27.6 | 27.5 | 38.5
O=C(CCC(=O)c1ccsc1)c1ccsc1 | > 100 | > 100 | > 100 | > 100 | > 100 | > 100 | > 100 | > 100 |  | > 100 | > 100 | > 100 | > 100 | > 100 | > 100 | > 100 | > 100 | > 100 | > 100
CC1(C)CNC(=O)C2(CCCO2)CNC(C)(C)CNC(=O)C2(CCCO2)CN1 (stereo not given) | > 10 | > 10 | > 10 | > 10 | > 10 |  | > 10 | > 10 |  | > 10 | > 10 | > 10 | > 10 | > 10 | > 10 | > 10 | > 10 | > 10 | > 10
O=C1Cc2c(-c3cccs3)cc(-c3ccccc3)nc2-c2ccccc2N1 | > 100 | > 100 | 41.9 | > 100 | > 100 | > 100 | > 100 |  | > 100 | 71.5 | > 100 | > 100 | > 100 | > 100 | > 100 | 45.7 | > 100 | > 100 | > 100
CN1CCN(c2cc3[nH]c4cc(O)cc(O)c4c(=O)c3cc2N)CC1 | > 100 | > 100 | 45.1 | > 100 | > 100 | 70.7 |  | > 100 | 87.9 | 72.5 | 42.4 | > 100 | 71.7 | 41.5 | > 100 | 67.4 | 54.9 | 94.2 | 21
COc1cc(CN=c2nc(N(C)C)ss2)cc(OC)c1OC | > 10 | > 10 | > 10 | > 10 | > 10 |  | > 10 | 4.47 | > 10 | > 10 | > 10 | > 10 | > 10 | 4.4 | > 10 | > 9.27 | > 10 | > 10 | 3.38
CCC(C)N1CN(c2ccccc2)C2(CCN(CC3COc4ccccc4O3)CC2)C1=O (stereo not given) | 39.1 | 59.8 | > 100 | > 100 | 51.3 |  | > 100 | 34.4 | 64.1 | > 100 | 49.7 | > 100 | 43.9 | 44.2 | 73.1 | 34.6 | 56.2 | 86.2 | 76
O=C1c2ccccc2C(=O)N1/N=C1/SC(=Nc2ccccc2)C(=Nc2ccccc2)N1c1ccccc1 | > 100 | > 100 | > 54.1 | > 100 | > 100 | > 100 |  | > 100 | > 100 | > 100 | > 100 | > 100 | > 100 | > 100 | > 88.6 | > 84.7 | > 100 | > 100 | > 31.6
O=C1CSCC(=O)Nc2ccccc2N1 | > 100 | > 100 |  | > 100 | > 100 | > 100 | > 100 | > 100 | > 100 | > 100 | > 100 | > 100 | > 100 | > 100 | > 100 | > 100 | > 100 | > 100 | > 100
COC(=O)C(Cc1ccccc1)NC(=O)CSc1nnc(COc2ccc(Cl)cc2)n1-c1ccccc1 (stereo not given) |  | > 100 | 56.1 | > 100 | > 100 | 33.2 | 63 | 46.6 |  | > 100 | 45.6 | 30.4 | > 100 | 28.3 | 53.3 | 42.7 |  | 40 | > 100
CCNC1=C(NC(=O)c2ccc(F)cc2)C(=O)c2ccccc2C1=O | > 100 | > 100 | > 100 | > 100 | > 100 |  | > 100 | > 100 | > 100 | > 100 | 35.9 | > 100 | > 100 |  | > 100 | 47.5 | 85.7 | > 100 | > 100
CNC(=O)C1CCCCNC(=O)CCC(NC(=O)OCc2ccccc2)C(=O)N1 (stereo not drawn) (Cbz-Glu-Lys-NHMe; lactam 1-2; configuration not given here) | > 100 | > 100 | > 100 | > 100 | > 100 | > 100 | > 100 | > 100 | > 100 | > 100 | > 100 | > 100 | > 100 | > 100 | > 100 | > 100 | > 100 | > 100 | 
N=C(N)SCc1ccc2c(c1)S(=O)(=O)c1ccccc1O2 | 56.8 | > 100 | 28.7 | > 100 | 73.8 | 34.5 | 53.2 | > 100 | 35.2 | 31.5 | 34.3 | 31.9 | 32.7 | 60.2 | 43.4 |  | 40.5 | 34.7 | > 100
